Measured values taken from patent US4983597A, “Beta-lactams as anticholesterolemic agents” (Merck & Co., Inc., priority 1989, dated 1991).

What follows are molecules tested against T1, HMG-CoA synthase (Rattus norvegicus, UniProt P17425) (assay: HMG-CoA Synthase Inhibition Assay). Conditions: Table VI; rat liver enzyme, 1-[14C]-acetyl-CoA incorporation.
T1 construct: The livers from male Charles River CD rats (225-350 g) were homogenized; from tissue; host or cells: rat liver (male Charles River CD rats), 100,000 x g supernatant, ammonium sulfate and DEAE-52 fraction
T1 sequence (P17425 1-520): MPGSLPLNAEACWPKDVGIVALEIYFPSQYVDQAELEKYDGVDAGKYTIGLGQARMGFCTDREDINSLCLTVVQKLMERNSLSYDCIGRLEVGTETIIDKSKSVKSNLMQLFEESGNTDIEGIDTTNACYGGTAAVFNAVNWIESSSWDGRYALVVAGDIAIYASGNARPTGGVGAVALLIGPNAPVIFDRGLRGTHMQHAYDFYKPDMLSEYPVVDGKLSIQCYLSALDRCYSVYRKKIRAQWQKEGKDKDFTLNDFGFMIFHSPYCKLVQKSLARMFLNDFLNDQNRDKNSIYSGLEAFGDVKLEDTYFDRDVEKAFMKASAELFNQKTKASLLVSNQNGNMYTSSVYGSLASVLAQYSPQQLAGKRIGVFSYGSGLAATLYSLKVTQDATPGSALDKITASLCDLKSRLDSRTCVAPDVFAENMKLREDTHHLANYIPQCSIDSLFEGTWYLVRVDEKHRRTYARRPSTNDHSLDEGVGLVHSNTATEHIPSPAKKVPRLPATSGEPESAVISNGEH
Assay type: biochemical
Protocol: The intrinisic HMG-CoA synthase inhibition activity of the compounds of this invention is measured by the standard in vitro protocol described below:
The livers from male Charles River CD rats (225-350 g) were homogenized in 0.25 M sucrose which was adjusted with phenylmethylsulfonylfluoride (PMSF) and N-p-tosyl-1-lysine chloromethyl ketone (TLCK) so that the final concentration of each was […], respectively. The homogenate was centrifuged at 15,000× g for 20 minutes, the supernatant filtered through a fine nylon screen to remove most of the fat layer and recentrifuged at 100,000× g for 1 hour. This supernatant was removed and 1 M potassium phosphate, dithiothreitol (DTT) and ethylene glycolbis(β-aminoethyl ether)-N,N,N',N'-tetraacetic acid (EGTA) added to give a final concentration of 0.1 M (pH 7.2), 0.5 mM and 0.1 mM, respectively. Solid ammonium sulfate was added to 50% saturation to the protein solution, it was centrifuged at 15,000× g and the supernatant discarded. This precipitated protein could be stored at -70° C. for at least one month with very little loss of activity. The ammonium sulfate precipitate was dissolved in an minimal amount of 0.06 M potassium phosphate buffer (pH 7.2) containing 0.5 mM dithiothreitol and 0.1 mM EGTA (referred to as 0.06 M phosphate buffer) and dialyzed overnight against 2 liters of the same buffer to remove the ammonium sulfate and to inactivate HMG-CoA lyase [Clinkenbeard, et al., J. Biol. Chem. 250, 3108-3116(1975)].
The dialyzed extract was added to a column of DEAE-52 (Whatman) which had been equilibrated with 0.06 M phosphate buffer (10 mg of protein in 1 ml bed volume of the resin). The DEAE-cellulose was eluted with 0.06 M phosphate buffer until the optical density at 280 nm was essentially zero. This fraction contained the β-ketoacetyl-CoA thiolase activity. The HMG-CoA synthase was eluted from the column with 0.1 M phosphate buffer (pH 7.2) containing 0.5 mM DTT and […] EGTA, and was virtually free of all thiolase activity. The protein was precipitated by the addition of ammonium sulfate to give 50% saturation. This solution was stirred for 10 minutes at 4° C. and the precipitate collected by centrifugation at 15,000 rpm for 10 minutes. The supernatant was discarded and the precipitate dissolved in a minimum of 0.06 M phosphate buffer, pH 7.2 (about 10 ml) and the enzyme stored at -80° C.
HMG-CoA Synthase Inhibition Assay
Enzyme protein (ca. 24 mg) was added to a solution containing […] Tris-HCl (pH 8.0), 11.7 μM MgCl2, 1.17 μM ethylenediaminetetraacetic acid (EDTA), 0.58 μM dithiothreitol, and the indicated concentrations of the test compound (added as a 2 mg/ml solution in dimethylsulfoxide). The incubation took place in a volume of 0.085 ml at 30° in a shaking water bath. After 5 minutes, […] of a solution containing acetoacetyl-CoA and 0.1 μCi of 1-[^14 C]-acetyl-CoA was added to give a final concentrations of 0.1 and 0.4 μM, respectively. The incubation was continued for 10 more minutes and the reaction stopped by the addition of […] of the assay mixture to 0.2 ml of 6N HCl in a glass scintillation vial. The vial was heated for 1 hour at 120° after which time 0.2 ml more of 6N HCl was again added to each vial and the heating continued for another hour. Following this, 1.0 ml of 0.9% saline was added to each vial and finally 10 ml of scintillation liquid. Radioactivity was determined in a Packard Tri-Carb liquid scintillation counter. Percent inhibition is calculated by the formula: [formula]
IC50 values were determined by plotting the log of the concentration of the test compound verses the percentage inhibition and fitting a straight line to the resulting data by using the least squares method.

IC50 [µM] | Compound
1.8 | Cc1ccc(S(=O)(=O)N2C(=O)C(C)(C)C2CCc2ccccc2)cc1 (stereo not shown) [Table VI a]
0.4 | Cc1ccc(S(=O)(=O)N2C(=O)C(C)(C)C2C(Cc2ccccc2)OC(=O)c2ccccc2)cc1 (stereo not shown) [Table VI b]
0.68 | Cc1ccc(S(=O)(=O)N2C(=O)C(C)(C)C2C=Cc2ccccc2)cc1 (stereo not shown) [Table VI c]
0.11 | Cc1ccc(S(=O)(=O)N2C(=O)C(C)(C)C2C2OC2c2ccccc2)cc1 (stereo not shown) [Table VI d]
